ChEMBL document CHEMBL1201862, “PubChem BioAssay data set” (2004)
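In this assay, cells in 96-well plates receive the compound at five concentrations for 48 hours. Endpoints are linearly interpolated between the surrounding concentrations. At the GI50, growth is halved.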 Active and inactive are the calls of the source. Rule as the data show it: active = GI50 up to about 1.1 µM and inactive = higher.

Legend:
Experiment in all cases: NCI tumour cell line growth inhibition, 48 h
BT-549 = tested on: BT-549
DU-145 = tested on: DU-145
HCT-116 = tested on: HCT-116
HCT-15 = tested on: HCT-15
HL-60 = tested on: HL-60
Hs-578T = tested on: Hs-578T
IGROV-1 = tested on: IGROV-1
MDA-N = tested on: MDA-N
MOLT-4 = tested on: MOLT-4
NCI-H23 = tested on: NCI-H23
NCI-H460 = tested on: NCI-H460
OVCAR-3 = tested on: OVCAR-3
PC-3 = tested on: PC-3
RPMI-8226 = tested on: RPMI-8226
SF-295 = tested on: SF-295
SF-539 = tested on: SF-539
SK-MEL-2 = tested on: SK-MEL-2
SK-OV-3 = tested on: SK-OV-3
UACC-62 = tested on: UACC-62
HCC 2998 = tested on: HCC 2998

SMILES | GI50 (BT-549) | GI50 (DU-145) | GI50 (HCT-116) | GI50 (HCT-15) [µM] | GI50 (HL-60) | GI50 (Hs-578T) | GI50 (IGROV-1) | GI50 (MDA-N) | GI50 (MOLT-4) | GI50 (NCI-H23) | GI50 (NCI-H460) | GI50 (OVCAR-3) | GI50 (PC-3) | GI50 (RPMI-8226) | GI50 (SF-295) | GI50 (SF-539) | GI50 (SK-MEL-2) | GI50 (SK-OV-3) | GI50 (UACC-62) | GI50 (HCC 2998)
NC(Cc1ccccc1)c1nn[nH]n1 (configuration not stated) | > 100 µM (inactive) | > 100 µM (inactive) | > 100 µM (inactive) | > 100 | > 100 µM (inactive) | > 100 µM (inactive) | > 100 µM (inactive) | > 100 µM (inactive) | < 0.01 µM (active) | > 100 µM (inactive) | > 100 µM (inactive) | > 100 µM (inactive) | > 100 µM (inactive) | > 100 µM (inactive) | > 100 µM (inactive) | > 100 µM (inactive) | > 100 µM (inactive) | > 100 µM (inactive) | > 100 µM (inactive) | 
Cc1[nH]c(=O)nc(S)c1C(=O)Nc1cccc2cc3ccccc3cc12 | > 100 µM (inactive) | > 100 µM (inactive) | > 100 µM (inactive) | > 100 | > 100 µM (inactive) | > 100 µM (inactive) | > 100 µM (inactive) | > 10 µM (inactive) | > 100 µM (inactive) | > 100 µM (inactive) | > 100 µM (inactive) | > 100 µM (inactive) | > 100 µM (inactive) | > 100 µM (inactive) | > 100 µM (inactive) |  | > 100 µM (inactive) | > 100 µM (inactive) | > 100 µM (inactive) | > 100 µM (inactive)
Cc1nn(C(=O)c2ccccc2O)c2c1C(c1ccc(O)cc1)SC(=N)N2 (configuration not stated) | > 10 µM (inactive) | 1.67 µM (inactive) | 1.49 µM (inactive) | 1.75 | > 2.03 µM (inactive) | 0.449 µM (active) | 2.08 µM (inactive) | 1.67 µM (inactive) | 1.33 µM (inactive) | 1.83 µM (inactive) | 0.359 µM (active) | > 2.66 µM (inactive) | > 3.03 µM (inactive) |  | 1.26 µM (inactive) | 1.36 µM (inactive) | > 2.65 µM (inactive) | 2.25 µM (inactive) | 0.929 µM (active) | > 8.91 µM (inactive)
O=C(C1OC1c1ccc(Cl)cc1)C12CC3CC(CC(C3)C1)C2 (configuration not stated) | 19.9 µM (inactive) | 29.1 µM (inactive) | 12.4 µM (inactive) | 20.1 | 18.3 µM (inactive) | 28.4 µM (inactive) | 23.6 µM (inactive) | 15.2 µM (inactive) | 20 µM (inactive) | 14.4 µM (inactive) | 14.9 µM (inactive) | 15.8 µM (inactive) | 29 µM (inactive) |  | 18.2 µM (inactive) | 17.3 µM (inactive) | 25.5 µM (inactive) | 31 µM (inactive) | 15.4 µM (inactive) | 19.1 µM (inactive)
O=C(N/S(=N/S(=O)(=O)c1ccc(Br)cc1)C(Cl)(Cl)Cl)c1ccccc1 (configuration not stated) | > 100 µM (inactive) | > 100 µM (inactive) | > 100 µM (inactive) | > 100 |  | > 100 µM (inactive) | > 100 µM (inactive) | > 100 µM (inactive) | > 100 µM (inactive) | > 100 µM (inactive) | > 100 µM (inactive) | > 100 µM (inactive) | > 100 µM (inactive) | > 100 µM (inactive) | > 100 µM (inactive) | > 100 µM (inactive) | > 100 µM (inactive) | > 100 µM (inactive) | > 100 µM (inactive) | 
CC(C)(C)OC(=O)[C@@H]1CCC(=O)N1C1(c2ccccc2)c2ccccc2-c2ccccc21 | > 100 µM (inactive) | 97.1 µM (inactive) | 37.8 µM (inactive) | 55.5 | 37.2 µM (inactive) | 33.5 µM (inactive) | 56.4 µM (inactive) | 29.4 µM (inactive) | 25.9 µM (inactive) | 62.4 µM (inactive) | 30.5 µM (inactive) | 27.4 µM (inactive) | 29.4 µM (inactive) |  | 19.1 µM (inactive) | 17.1 µM (inactive) | 26.2 µM (inactive) | > 100 µM (inactive) | 33.6 µM (inactive) | 52.8 µM (inactive)
N#CCCC1(CCC#N)S(=O)(=O)OCCOS1(=O)=O | 6.04 µM (inactive) | 58.3 µM (inactive) | 40.9 µM (inactive) | 36.8 | 23.3 µM (inactive) | 18.2 µM (inactive) |  | 54.3 µM (inactive) | 24.7 µM (inactive) | 36.1 µM (inactive) |  | 32.1 µM (inactive) | 63.4 µM (inactive) | 37 µM (inactive) | 8.99 µM (inactive) | 8.34 µM (inactive) | 42.2 µM (inactive) | 51.3 µM (inactive) | 9.4 µM (inactive) | 
O=C(O)c1c[nH]c2c(Sc3ccccc3)nccc2c1=O | 33 µM (inactive) | > 100 µM (inactive) | > 100 µM (inactive) | > 100 | 78.7 µM (inactive) | > 100 µM (inactive) | > 100 µM (inactive) | > 100 µM (inactive) | > 100 µM (inactive) | > 100 µM (inactive) | > 100 µM (inactive) | > 100 µM (inactive) | > 100 µM (inactive) |  | > 100 µM (inactive) | > 100 µM (inactive) | > 100 µM (inactive) | > 100 µM (inactive) | > 100 µM (inactive) | 
COc1cc(OC)cc(-n2c(N)c(C#N)c3ccc([N+](=O)[O-])cc3c2=O)c1 | 31.2 µM (inactive) | 20.8 µM (inactive) | 93.5 µM (inactive) | > 100 |  | 24.2 µM (inactive) |  | 80 µM (inactive) |  | 36.4 µM (inactive) | 30.8 µM (inactive) |  | 41.3 µM (inactive) | 85.7 µM (inactive) |  |  | 41.2 µM (inactive) |  | 27.3 µM (inactive) | 84.1 µM (inactive)
O=C1CSC(c2ccccc2O)N1c1ccc(-c2ccc(-n3c(-c4ccccc4)nc4ccccc4c3=O)cc2)cc1 (configuration not stated) | 13.7 µM (inactive) | 49 µM (inactive) | 29.5 µM (inactive) | 33.7 | 23.4 µM (inactive) | 40.1 µM (inactive) | 15.3 µM (inactive) | 35.5 µM (inactive) | 25.4 µM (inactive) | 43.9 µM (inactive) | 35.7 µM (inactive) | 34.8 µM (inactive) | 27.7 µM (inactive) | 33.6 µM (inactive) | 22.5 µM (inactive) | 32.1 µM (inactive) |  | 64.1 µM (inactive) | 27.7 µM (inactive) | 
CC1(O)C2(c3ccccc3)CCC[N+]1(C)CC2 (configuration not stated) | > 100 µM (inactive) | > 100 µM (inactive) | > 100 µM (inactive) | > 100 | > 100 µM (inactive) | > 100 µM (inactive) | > 100 µM (inactive) | > 100 µM (inactive) | > 100 µM (inactive) | > 100 µM (inactive) | > 100 µM (inactive) | > 100 µM (inactive) | > 100 µM (inactive) | > 100 µM (inactive) | > 100 µM (inactive) |  | > 100 µM (inactive) | > 100 µM (inactive) | > 100 µM (inactive) | > 100 µM (inactive)
Cc1nc2ccc(Br)cc2c(=O)n1-c1ccc(N)cc1 | 99.5 µM (inactive) | > 100 µM (inactive) | > 100 µM (inactive) | > 100 | > 100 µM (inactive) | > 100 µM (inactive) | > 100 µM (inactive) | > 100 µM (inactive) | > 100 µM (inactive) |  | > 100 µM (inactive) | > 100 µM (inactive) | > 100 µM (inactive) |  | > 100 µM (inactive) | > 100 µM (inactive) | > 100 µM (inactive) | > 100 µM (inactive) | > 100 µM (inactive) | > 100 µM (inactive)
O=C(CCCN1CCC2(CC1)CC(=O)N(N1CCOCC1)C2=O)c1ccc(F)cc1 | > 100 µM (inactive) | > 100 µM (inactive) | > 100 µM (inactive) | > 100 | > 100 µM (inactive) | > 100 µM (inactive) | > 100 µM (inactive) | > 100 µM (inactive) | > 100 µM (inactive) | > 100 µM (inactive) | > 100 µM (inactive) | > 100 µM (inactive) | > 100 µM (inactive) | > 100 µM (inactive) | > 100 µM (inactive) | > 100 µM (inactive) | > 100 µM (inactive) | > 100 µM (inactive) | > 100 µM (inactive) | 
COc1ccc(/N=N/C(=N\c2ccc(F)cc2)c2ccc(N(CCC#N)CCC#N)cc2)cc1 | 17.5 µM (inactive) | 33 µM (inactive) | 32.6 µM (inactive) | 54 |  | 27.4 µM (inactive) | 19.9 µM (inactive) | 29.9 µM (inactive) | 31.2 µM (inactive) | 17.4 µM (inactive) | 20.2 µM (inactive) | 30.9 µM (inactive) | 24.1 µM (inactive) | 39.2 µM (inactive) | 32.9 µM (inactive) | > 100 µM (inactive) |  | 58.5 µM (inactive) | 15.7 µM (inactive) | 19.1 µM (inactive)
C[N+]1(C)[C@@H]2CC[C@H]1C[C@@H](OC(=O)C(CO)c1ccccc1)C2 (some centres not stated) [ATROPINE METHYLBROMIDE] | > 100 µM (inactive) | > 100 µM (inactive) | > 100 µM (inactive) | > 100 |  | > 100 µM (inactive) | > 100 µM (inactive) | > 100 µM (inactive) | > 100 µM (inactive) | > 100 µM (inactive) |  | > 100 µM (inactive) | > 100 µM (inactive) | > 100 µM (inactive) | > 100 µM (inactive) | > 100 µM (inactive) | > 100 µM (inactive) | > 100 µM (inactive) | > 100 µM (inactive) | 
NS(=O)(=O)c1ccc(C(=O)O)cc1 [CARZENIDE] | > 100 µM (inactive) | > 100 µM (inactive) | > 100 µM (inactive) | > 100 | > 100 µM (inactive) | > 100 µM (inactive) | > 100 µM (inactive) | > 100 µM (inactive) | > 100 µM (inactive) | > 100 µM (inactive) |  | > 100 µM (inactive) | > 100 µM (inactive) | > 100 µM (inactive) | > 100 µM (inactive) |  | > 100 µM (inactive) | > 100 µM (inactive) | > 100 µM (inactive) | 
